Reference: patent US12516053B2, “Bcl-2 inhibitors” (BEIGENE, LTD., priority 2019, dated 2026)
Like-named read-outs stand apart in the source and are kept apart here.

Legend:
[1] = molecular target: Recombinant human Bcl-2 protein (Homo sapiens, UniProt P10415); assay: Bcl-2 TR-FRET assay; format: binding; conditions: TR-FRET, 0.05 nM Bcl-2, FITC labeled Bak peptide 0.5 nM; read-out: Biochemical assay (IC50, nM) Bcl-2 WT
Method: Compounds disclosed herein were tested for blocking of Bcl-2 protein with its ligand in an assay based on Time-Resolved Fluorescence Resonance Energy Transfer (TR-FRET) methodology. Recombinant human 0.05 nM Bcl-2 protein was pre-incubated with a serial dilution of compounds disclosed herein (top final concentration is 1 uM or 0.1 uM or 0.02 uM or 0.01 uM, 10 points) at room temperature for 0.5 hour in an assay buffer containing 20 mM potassium phosphate buffer, pH 7.5, 50 mM NaCl, 1 mM EDTA, 0.05% Tween-20, 0.01% BSA. […] The inhibition percentage of Bcl-2 interaction with its ligand in presence of increasing concentrations of compounds was calculated based on the TR-FRET signals. The IC50 for each compound was derived from fitting the data to the four-parameter logistic equation by Graphpad Prism software or Dotmatics.

[2] = molecular target: recombinant human Bcl-2-G101V protein (Homo sapiens, UniProt P10415, G101V); assay: Bcl-2-G101V TR-FRET assay; format: binding; conditions: TR-FRET, 0.1 nM Bcl-2-G101V, FITC labeled Bak peptide 5 nM; read-out: Biochemical assay (IC50, nM) Bcl-2 G101V
Text: The IC50 for each compound was derived from fitting the data to the four-parameter logistic equation by Graphpad Prism software or Dotmatics.

[3] = system: RS4;11 (BCL-2 dependent acute lymphoblastic leukemia cell line); assay: RS4;11 cell proliferation assay; format: cell-based; conditions: CellTiter-GLO, read-out: Cellular proliferation assay (IC50, nM) RS4
Method: RS4;11 Cell Proliferation Assay:
Each compound was serially diluted with 1 μM as the maximum concentration. To test the apoptotic effect of the compounds, the cells were seeded at 50,000 in 180 μl per well in 96-well plates and treated with 10-point dilution series of each compound for 48 hrs at 37° C. Cell viability was assessed after the treatment using CellTiter-GLO luminescent assay (Promega) according to the manufacturer's recommendations. Briefly, 30 μl of CellTiter-GLO reagent was added into 200 μl of cell culture, Mixture was agitated on an orbital shaker for 5 mins to ensure cell lysis followed by 7 mins incubation at room temperature to allow development and stabilization of luminescent signals, which corresponded to quantity of ATP and thus the quantity of metabolically active cells. Luminescent signals were measured using PHERAstar FS reader (BMG). Mean IC50 values for cell viability were determined with GraphPad Prism software.

[4] = system: Molt-4 (Bcl-xL-dependent ALL cell line); assay: Molt-4 cell proliferation assay; format: cell-based; conditions: CellTiter-GLO, read-out: Cellular proliferation assay (IC50, nM) Molt-4
Text: Molt-4 Cell Proliferation Assay:
Each compound was serially diluted with 10 1M as the maximum concentration. The anti-proliferative IC50s of these compounds were similarly determined as a percentage of viable cells upon treatment compared to the untreated control using CellTiter-GLO luminescent assay.

BA/F3-BCL-2 cells = BA/F3-BCL-2 cells (Homo sapiens, UniProt P10415); assay: BA/F3 cell proliferation assay, BCL-2 wild type; format: cell-based, Murine; conditions: 24 hrs treatment, 3% FBS, CellTiter-Glo, geometric mean of 3 experiments; read-out: Cellular proliferation assay (IC50, nM) Bcl-2 WT; BaF3 cell
Method: (§1) BA/F3 cell Proliferation Assay:
(§2) The cells were treated with a 10-point dilution series of compounds for 24 hrs. After the compound treatment, 30 μl of CellTiter-Glo reagent was added in each well. The effects on proliferation were determined using Cell TiterGlo reagent (Promega) according to the manufacturer's instructions. Luminescent signals were measured using PHERAstar FS plate reader (BMG Labtech). ICS50 values for cell viability were determined with GraphPad Prism software and were the geometric mean of 3 independent experiments.

BA/F3-BCL-2 G101V cells = BA/F3-BCL-2 G101V cells (Homo sapiens, UniProt P10415, G101V, cells depend on it); assay: BA/F3 cell proliferation assay, Bcl-2 G101V; format: cell-based, Murine; conditions: 24 hrs treatment, 3% FBS, CellTiter-Glo, geometric mean of 3 experiments; read-out: Cellular proliferation assay (IC50, nM) Bcl-2 G101V; BaF3 cell
Method: as §1, §2

[5] = Homo sapiens, RS4-11, 48 hrs treatment

| Molecule | IC50 [1] | IC50 [2] | IC50 ([3]; 48 hrs treatment) | IC50 [4] | IC50 (BA/F3-BCL-2 cells) | GI50 (BA/F3-BCL-2 G101V cells) | IC50 [3, 5] | IC50 ([4]; Homo sapiens, MOLT-4) |
| --- | --- | --- | --- | --- | --- | --- | --- | --- |
| 2-(2,3-dihydropyrrolo[3′,2′:56]pyrido[2,3-b][1,4]oxazin-1(6H)-yl)-N-((4-((((1r,4r)-4-hydroxy-4-methylcyclohexyl)methyl)amino)-3-nitrophenyl)sulfonyl)-4-(2-((S)-2-(2-isopropylphenyl)pyrrolidin-1-yl)-7-azaspiro[3,5]nonan-7-yl)benzamide [Example B3] | 0.063 nM | 0.94 nM | 1.1 nM | 4540 nM | 1.1 nM | 10.8 nM |  |  |
| CC(C)c1ccccc1[C@@H]1CCCN1C1CC2(CCN(c3ccc(C(=O)NS(=O)(=O)c4cc5c(c([N+](=O)[O-])c4)N[C@H](C[C@H]4CC[C@H](O)CC4)CO5)c(Oc4cnc5[nH]ccc5c4)c3)CC2)C1 [Example A4, 2-((1H-pyrrolo[2,3-b]pyridin-5-yl)oxy)-N—(((R)-3-(((1R,4R)-4-hydroxycyclohexyl)methyl)-5-nitro-3,4-dihydro-2H-benzo[b][1,4]oxazin-7-yl)sulfonyl)-4-(2-((S)-2-(2-isopropylphenyl)pyrrolidin-1-yl)7-azaspiro[3,5]nonan-7-yl)benzamide] | 0.025 nM | 0.86 nM |  |  | 0.3 nM | 9.8 nM | 0.47 nM | > 10000 nM |
| CC(C)c1ccccc1[C@@H]1CCCN1C1CC2(CCN(c3ccc(C(=O)NS(=O)(=O)c4cc5c(c([N+](=O)[O-])c4)N[C@H](C[C@H]4CC[C@@H](O)CC4)CO5)c(Oc4cnc5[nH]ccc5c4)c3)CC2)C1 [Example A5, 2-((1H-pyrrolo[2,3-b]pyridin-5-yl)oxy)-N—(((R)-3-(((1s,4S)-4-hydroxycyclohexyl)methyl)-5-nitro-3,4-dihydro-2H-benzo[b][1,4]oxazin-7-yl)sulfonyl)-4-(2-((S)-2-(2-isopropylphenyl)pyrrolidin-1-yl)-7-azaspiro[3,5]nonan-7-yl)benzamide] | 0.024 nM | 0.83 nM |  |  | 0.41 nM | 7.5 nM | 1 nM | 5160 nM |
| CC(C)c1ccccc1[C@@H]1CCCN1C1CC2(CCN(c3ccc(C(=O)NS(=O)(=O)c4ccc(NC[C@H]5CC[C@](C)(O)CC5)c([N+](=O)[O-])c4)c(N4CCCOc5nc6[nH]ccc6cc54)c3)CC2)C1 [Example B1] | 0.04 nM | 1.9 nM |  |  | 1 nM | 15.5 nM | 1.7 nM | 6730 nM |
| CC(C)c1ccccc1[C@@H]1CCCN1C1CC2(CCN(c3ccc(C(=O)NS(=O)(=O)c4ccc(NCC5(F)CCOCC5)c([N+](=O)[O-])c4)c(N4CCCOc5nc6[nH]ccc6cc54)c3)CC2)C1 [Example B2, (S)-2-(3,4-dihydro-2H-pyrrolo[3′,2′:5,6]pyrido[2,3-b][1,4]oxazepin-1(7H)-yl)-N-((4-(((4-fluorotetrahydro-2H-pyran-4-yl)methyl)amino)-3-nitrophenyl)sulfonyl)-4-(2-(2-(2-isopropylphenyl)pyrrolidin 1-yl)-7-azaspiro[3,5]nonan-7-yl)benzamide] | 0.05 nM | 1.8 nM |  |  | 0.82 nM | 7.8 nM | 1.7 nM | 5560 nM |
| CC(C)c1ccccc1[C@@H]1CCCN1C1CC2(C1)CN(c1ccc(C(=O)NS(=O)(=O)c3ccc(NC[C@H]4CC[C@](C)(O)CC4)c([N+](=O)[O-])c3)c(N3CCOc4nc5[nH]ccc5cc43)c1)C2 [Example B11, 2-(2,3-dihydropyrrolo[3′,2′:5,6]pyrido[2,3-b][1,4]oxazin-1(6H)-yl)-N-((4-((((1R,4R)-4-hydroxy-4-methylcyclohexyl)methyl)amino)-3-nitrophenyl)sulfonyl)-4-(6-((S)-2-(2-isopropylphenyl)pyrrolidin-1-yl)-2-azaspiro[3.3]heptan-2-yl)benzamide] | 0.041 nM | 2.8 nM |  |  |  |  | 3.2 nM | > 10000 nM |
| CC(C)c1ccccc1[C@@H]1CCCN1C1CC2(C1)CN(c1ccc(C(=O)NS(=O)(=O)c3ccc(NCC4(F)CCOCC4)c([N+](=O)[O-])c3)c(N3CCOc4nc5[nH]ccc5cc43)c1)C2 [Example B12, (S)-2-(2,3-dihydropyrrolo[3′,2′:5,6]pyrido[2,3-b][1,4]oxazin-1(6H)-yl)-N-((4-(((4-fluorotetrahydro-2H-pyran-4-yl)methyl)amino)-3-nitrophenyl)sulfonyl)-4-(6-(2-(2-isopropylphenyl)pyrrolidin-1-yl)-2-azaspiro[3.3]heptan-2-yl)benzamide] | 0.058 nM | 3.7 nM |  |  |  |  | 3.6 nM | 7310 nM |
| CC(C)c1ccccc1[C@@H]1CCCN1C1CC2(C1)CN(c1ccc(C(=O)NS(=O)(=O)c3ccc(NC[C@H]4CC[C@](C)(O)CC4)c([N+](=O)[O-])c3)c(N3CCCOc4nc5[nH]ccc5cc43)c1)C2 [Example B13, 2-(3,4-dihydro-2H-pyrrolo[3′,2′:5,6]pyrido[2,3-b][1,4]oxazepin-1(7H)-yl)-N-((4-((((1r,4r)-4-hydroxy-4-methylcyclohexyl)methyl)amino)-3-nitrophenyl)sulfonyl)-4-(6-((S)-2-(2-isopropylphenyl)pyrrolidin-1-yl)-2-azaspiro[3,3]heptan-2-yl)benzamide] | 0.094 nM | 2.4 nM |  |  | 2.8 nM | 39.1 nM | 5.5 nM | > 10000 nM |
| CC(C)c1ccccc1[C@@H]1CCCN1C1CC2(C1)CN(c1ccc(C(=O)NS(=O)(=O)c3ccc(NCC4(F)CCOCC4)c([N+](=O)[O-])c3)c(N3CCCOc4nc5[nH]ccc5cc43)c1)C2 [Example B14, (S)-2-(3,4-dihydro-2H-pyrrolo[3′,2′:5,6]pyrido[2,3-b][1,4]oxazepin-1(7H)-yl)-N-((4-(((4-fluorotetrahydro-2H-pyran-4-yl)methyl)amino)-3-nitrophenyl)sulfonyl)-4-(6-(2-(2-isopropylphenyl)pyrrolidin-1-yl)-2-azaspiro[3.3]heptan-2-yl)benzamide] | 0.11 nM | 3.1 nM |  |  | 2.4 nM | 26.5 nM | 4.8 nM | > 10000 nM |
| CC(C)c1ccccc1[C@@H]1CCCN1C1CC2(C1)CN(c1ccc(C(=O)NS(=O)(=O)c3ccc(NC[C@H]4COCCO4)c([N+](=O)[O-])c3)c(N3CCCOc4nc5[nH]ccc5cc43)c1)C2 [Example B15, N-((4-((((S)-1,4-dioxan-2-yl)methyl)amino)-3-nitrophenyl)sulfonyl)-2-(3,4-dihydro-2H-pyrrolo[3′,2′:5,6]pyrido[2,3-b][1,4]oxazepin-1(7H)-yl)-4-(6-((S)-2-(2-isopropylphenyl)pyrrolidin-1-yl)-2-azaspiro[3,3]heptan-2-yl)benzamide] | 0.14 nM | 5.2 nM |  |  |  |  | 8 nM | > 10000 nM |
